From US20210047324A1 (Aptinyx Inc., priority 2018, published 2021)
Values joined by “and” are separate entries in the source; they are usually repeats but may differ in a detail not shown here. Identical values can stand only once. Like-named read-outs stand apart in the source and are kept apart here.

Key:
NMDAR2A = target: T1, NMDAR2A (Homo sapiens, UniProt Q12879); test: NMDAR agonist assay, [3H]MK-801 binding, NMDAR2A expressing HEK cell membranes; format: biochemical; settings: 50 μM glutamate; for EC50: read-out: NMDAR2A B: log EC50 (converted); for Emax: 0.25 h, read-out: NMDAR2A A: % maximal [3H]MK-801 binding relative to 1 mM glycine; for NMDAR2A A: % maximal [3H]MK-801 binding relative to 1 mM glycine / Emax: relative to 1 mM glycine
T1 construct: expressed in transfected cells; host or cells: HEK cells (membrane extract)
Procedure: (§1) Assays were conducted as described by Moskal et al., “GLYX-13: a monoclonal antibody-derived peptide that acts as an N-methyl-D-aspartate receptor modulator,” Neuropharmacology, 49, 1077-87, 2005. These studies were designed to determine if the test compounds act to facilitate NMDAR activation in NMDAR2A, NMDAR2B, NMDAR2C or NMDAR2D expressing HEK cell membranes as measured by increases in [^3H]MK-801 binding.
(§2) In the assay, 300 μg of NMDAR expressing HEK cell membrane extract protein was preincubated for 15 minutes at […] in the presence of saturating concentrations of glutamate (50 μM) and varying concentrations of test compound (1×10^−15M-1×10^−7M), or 1 mM glycine. Following the addition of 0.3 μCi of [3H]MK-801 (22.5 Ci/mmol), reactions were again incubated for 15 minutes at 25° C. (nonequilibrium conditions). Bound and free [3H]MK-801 were separated via rapid filtration using a Brandel apparatus.
(§3) In analyzing the data, the DPM (disintegrations per minute) of [3H]MK-801 remaining on the filter were measured for each concentration of test compound or for 1 mM glycine. The DPM values for each concentration of a ligand (N=2) were averaged. The baseline value was determined from the best fit curve of the DPM values modeled using the GraphPad program and the log(agonist) vs. response (three parameters) algorithm was then subtracted from all points in the dataset. The % maximal [^3H]MK-801 binding was then calculated relative to that of 1 mM glycine: all baseline subtracted DPM values were divided by the average value for 1 mM glycine. The EC50 and % maximal activity were then obtained from the best fit curve of the % maximal [3H]MK-801 binding data modelled using the GraphPad program and the log(agonist) vs. response (three parameters) algorithm.
(§4) The tables below summarize the results for the wild type […] NMDAR2A, NMDAR2B, NMDAR2C, and NMDAR2D, and whether the compound is not an agonist (−), is an agonist (+), or is a strong agonist (++), where column A is based on the % maximal [3H]MK-801 binding relative to 1 mM glycine (−=0; <100%=+; and >100%=++); and column B is based on log EC50 values (0=−; ≥1×10^−9 M (e.g., −8)=+; and <1×10^−9 M (e.g., −10)=++).

NMDAR2B = target: T2, NMDAR2B (Homo sapiens, UniProt Q13224); test: NMDAR agonist assay, [3H]MK-801 binding, NMDAR2B expressing HEK cell membranes; format: biochemical; settings: 50 μM glutamate; for EC50: read-out: NMDAR2B B: log EC50 (converted); for NMDAR2B A: % maximal [3H]MK-801 binding relative to 1 mM glycine / Emax: relative to 1 mM glycine; for Emax: read-out: NMDAR2B A: % maximal [3H]MK-801 binding relative to 1 mM glycine
T2 construct: expressed in transfected cells; host or cells: HEK cells (membrane extract)
Procedure: as §1, §2, §3, §4

[1] = IV pharmacokinetics in Sprague Dawley rats; format: in vivo; settings: rat, 2 mg/kg, normal saline; for Vd: read-out: Vss
Procedure: Sprague Dawley rats were dosed intravenously using a normal saline formulation containing 2 mg/kg of the compounds identified in the below table. The table below summarizes the results of the IV pharmacokinetics.

[2] = Oral pharmacokinetics in Sprague Dawley rats (plasma, brain, CSF); format: in vivo; settings: rat
Procedure: In another experiment, Sprague Dawley rats were dosed per os (oral gavage) using a normal saline formulation containing 10 mg/kg of the compounds identified in the table below. Plasma, brain, and CSF samples were analyzed at various time points over a 24 hour period. The table below summarizes the results of the oral pharmacokinetics, where the first three values (Tmax, Cmax and AUClast) are plasma values.

[3] = Microsomal stability (Human); format: in vitro ADME; settings: after 60 minutes
Procedure: (§5) Microsomal stability of disclosed compounds was investigated. The following table indicates the percent of compound remaining after 60 minutes.

[4] = Microsomal stability (Rat); format: in vitro ADME; settings: after 60 minutes
Procedure: as §5

Plasma stability (Human) = format: in vitro ADME; settings: after 60 minutes
Procedure: (§6) Plasma stability of disclosed compounds was investigated. The following table indicates the percent of compound remaining after 60 minutes.

Plasma stability (Rat) = format: in vitro ADME; settings: after 60 minutes
Procedure: as §6

[5] = Sprague-Dawley, in vivo, iv, read-out: Cmax
[6] = Sprague-Dawley, po, per os, 10 mg/kg, plasma, read-out: Tmax
[7] = Sprague-Dawley, plasma, po, 10 mg/kg, per os
[8] = Sprague-Dawley, plasma, po, 10 mg/kg, per os 10 mg/kg
[9] = Sprague-Dawley, plasma, po, 10 mg/kg, per os, 10 mg/kg, plasma, read-out: Cmax

T1 sequence (Q12879 23-1464, species assumed, other chains not shown): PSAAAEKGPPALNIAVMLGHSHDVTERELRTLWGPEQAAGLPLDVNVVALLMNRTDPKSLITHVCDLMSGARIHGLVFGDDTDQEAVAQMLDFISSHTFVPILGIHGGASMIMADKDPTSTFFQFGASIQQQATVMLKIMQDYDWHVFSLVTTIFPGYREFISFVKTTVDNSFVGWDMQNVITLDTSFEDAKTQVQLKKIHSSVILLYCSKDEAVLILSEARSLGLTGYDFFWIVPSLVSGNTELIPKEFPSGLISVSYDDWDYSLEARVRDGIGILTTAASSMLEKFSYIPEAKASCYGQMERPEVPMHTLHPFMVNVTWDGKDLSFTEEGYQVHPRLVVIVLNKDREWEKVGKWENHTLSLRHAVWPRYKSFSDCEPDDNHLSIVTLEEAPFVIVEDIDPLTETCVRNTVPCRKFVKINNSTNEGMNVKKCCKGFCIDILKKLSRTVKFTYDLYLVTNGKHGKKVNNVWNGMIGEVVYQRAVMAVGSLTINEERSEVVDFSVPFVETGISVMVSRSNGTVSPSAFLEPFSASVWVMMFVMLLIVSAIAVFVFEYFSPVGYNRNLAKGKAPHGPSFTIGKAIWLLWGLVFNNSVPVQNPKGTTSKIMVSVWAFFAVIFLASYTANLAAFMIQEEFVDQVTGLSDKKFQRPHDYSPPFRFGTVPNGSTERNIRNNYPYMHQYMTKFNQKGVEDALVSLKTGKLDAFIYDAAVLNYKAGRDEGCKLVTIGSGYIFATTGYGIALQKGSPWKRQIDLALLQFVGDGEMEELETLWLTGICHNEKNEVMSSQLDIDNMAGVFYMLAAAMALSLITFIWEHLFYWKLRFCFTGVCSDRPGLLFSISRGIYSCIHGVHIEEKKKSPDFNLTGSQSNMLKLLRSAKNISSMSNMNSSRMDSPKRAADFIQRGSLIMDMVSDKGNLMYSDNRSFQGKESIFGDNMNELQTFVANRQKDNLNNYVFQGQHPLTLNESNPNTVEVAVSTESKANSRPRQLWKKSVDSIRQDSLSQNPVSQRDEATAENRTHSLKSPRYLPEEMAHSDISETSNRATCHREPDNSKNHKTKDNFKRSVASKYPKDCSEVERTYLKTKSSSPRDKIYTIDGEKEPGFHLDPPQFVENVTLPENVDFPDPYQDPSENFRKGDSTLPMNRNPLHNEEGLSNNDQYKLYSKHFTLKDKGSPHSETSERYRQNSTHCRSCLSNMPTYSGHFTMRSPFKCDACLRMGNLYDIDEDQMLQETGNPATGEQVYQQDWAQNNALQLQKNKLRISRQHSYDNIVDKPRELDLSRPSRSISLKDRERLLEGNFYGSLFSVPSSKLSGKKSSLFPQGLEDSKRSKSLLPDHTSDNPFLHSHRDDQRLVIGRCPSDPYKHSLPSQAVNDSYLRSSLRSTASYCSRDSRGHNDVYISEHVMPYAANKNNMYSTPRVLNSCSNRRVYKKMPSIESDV
T2 sequence (Q13224 27-1484, species assumed, other chains not shown): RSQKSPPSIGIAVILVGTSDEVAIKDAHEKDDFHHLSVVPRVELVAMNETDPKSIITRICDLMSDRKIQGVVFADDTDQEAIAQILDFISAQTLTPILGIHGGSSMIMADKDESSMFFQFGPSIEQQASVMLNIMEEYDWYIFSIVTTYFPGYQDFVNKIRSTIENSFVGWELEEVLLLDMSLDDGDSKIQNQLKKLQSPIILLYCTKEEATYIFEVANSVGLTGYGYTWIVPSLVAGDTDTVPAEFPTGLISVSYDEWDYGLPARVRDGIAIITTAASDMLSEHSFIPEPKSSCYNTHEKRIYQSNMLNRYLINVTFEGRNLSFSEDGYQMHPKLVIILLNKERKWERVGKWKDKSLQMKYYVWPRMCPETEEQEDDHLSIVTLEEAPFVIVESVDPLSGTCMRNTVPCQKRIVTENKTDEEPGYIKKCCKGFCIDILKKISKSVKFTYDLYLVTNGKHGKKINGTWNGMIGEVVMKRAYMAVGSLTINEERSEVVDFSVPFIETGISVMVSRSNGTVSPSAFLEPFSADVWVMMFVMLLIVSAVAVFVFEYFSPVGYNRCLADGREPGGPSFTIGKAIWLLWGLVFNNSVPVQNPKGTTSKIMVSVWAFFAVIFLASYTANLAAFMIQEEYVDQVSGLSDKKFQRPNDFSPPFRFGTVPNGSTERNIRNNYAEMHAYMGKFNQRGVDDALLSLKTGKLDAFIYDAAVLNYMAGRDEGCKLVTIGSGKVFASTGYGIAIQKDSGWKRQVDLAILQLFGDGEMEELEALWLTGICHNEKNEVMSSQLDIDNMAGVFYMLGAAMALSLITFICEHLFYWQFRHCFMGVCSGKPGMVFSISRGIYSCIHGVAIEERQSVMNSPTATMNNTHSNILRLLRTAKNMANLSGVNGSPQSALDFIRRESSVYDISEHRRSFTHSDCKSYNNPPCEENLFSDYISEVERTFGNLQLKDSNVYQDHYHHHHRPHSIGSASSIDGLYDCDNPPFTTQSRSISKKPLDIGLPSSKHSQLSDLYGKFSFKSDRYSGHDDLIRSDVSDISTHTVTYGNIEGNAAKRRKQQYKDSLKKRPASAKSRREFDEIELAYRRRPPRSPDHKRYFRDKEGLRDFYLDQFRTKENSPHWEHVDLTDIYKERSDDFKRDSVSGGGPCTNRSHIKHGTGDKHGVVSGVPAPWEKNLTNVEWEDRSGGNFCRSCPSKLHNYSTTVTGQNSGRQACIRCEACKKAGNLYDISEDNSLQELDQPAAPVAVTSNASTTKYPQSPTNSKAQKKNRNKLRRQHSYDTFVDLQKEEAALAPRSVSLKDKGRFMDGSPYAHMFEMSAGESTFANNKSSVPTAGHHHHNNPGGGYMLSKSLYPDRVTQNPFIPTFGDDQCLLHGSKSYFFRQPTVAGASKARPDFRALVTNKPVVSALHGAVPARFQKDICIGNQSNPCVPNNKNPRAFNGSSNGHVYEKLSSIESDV

Row | SMILES | EC50 (NMDAR2A) | NMDAR2A A: % maximal [3H]MK-801 binding relative to 1 mM glycine (NMDAR2A) | EC50 (NMDAR2B) | AUC(0-t) ([1]; Sprague-Dawley, in vivo, iv) | clearance ([1]; Sprague-Dawley, in vivo, iv) | half-life ([1]; Sprague-Dawley, in vivo, iv) | Cmax [1, 5] | Vd ([1]; Sprague-Dawley, in vivo, iv) | Tmax [2, 6] | AUC(0-t) [2, 7] | bioavailability [2, 8] | Cmax [2, 9] | CSF Cmax ([2]; per os, 10 mg/kg) | Brain Cmax ([2]; per os, 10 mg/kg) | Microsomal (Human): percent of compound remaining [3] | Microsomal (Rat): percent of compound remaining [4] | Plasma (Human): percent of compound remaining (Plasma stability (Human)) | Plasma (Rat): percent of compound remaining (Plasma stability (Rat)) | Emax (NMDAR2A) | Emax (NMDAR2B) | also measured
1 | NC(=O)CN1CCCC12CC=CCNC2=O (single isomer, unassigned) [GQ-2, 2-(6-oxo-1,7-diazaspiro[4.6]undec-9-en-1-yl)acetamide] | < 1 nM | + (<100%=+) | < 1 nM | 1290 ng·h/mL | 25.7 mL/min/kg | 1.77 h | 2310 ng/mL | 1.11 L/kg | 0.25 h | 5480 ng·h/mL | 85% | 5390 ng/mL | 1400.31 ng/mL | 492.96 ng/mL | 94% | 102% | 96% | 97% |  |  | NMDAR2B A: % maximal [3H]MK-801 binding relative to 1 mM glycine (NMDAR2B): + (<100%=+)
2 | O=C1NCCCCC12CCCCN2 (single isomer, unassigned) [AZ, 1,8-diazaspiro[5.6]dodecan-7-one] | < 1 nM |  | < 1 nM | 15400 ng·h/mL | 2.17 mL/min/kg | 4.25 h | 17900 ng/mL | 0.17 L/kg | 1 h | 74300 ng·h/mL | 97% | 29100 ng/mL | 5343.89 ng/mL | 8074.7 ng/mL | 92% | 91% | 101% | 101% | < 100% | < 100% | 
3 | CC(C)C(=O)N1CCC2(CCCN2C(=O)C(C)C)C1=O (single isomer, unassigned) [GU-1, 1,1′-(6-oxo-1,7-diazaspiro[4.4]nonane-1,7-diyl)bis(2-methylpropan-1-one)] |  | 0% | < 1 nM | 1140 ng·h/mL | 29.3 mL/min/kg | 0.18 h | 5850 ng/mL | 0.36 L/kg | 0.25 h | 2100 ng·h/mL | 37% | 4620 ng/mL | 0 ng/mL | 0 ng/mL | 96% | 94% | 82% | 89% |  | < 100% | 
4 | O=C1NCCCC12CCCCN2 (single isomer, unassigned) [AY, 1,8-diazaspiro[5.5]undecan-7-one] | < 1 nM | + (<100%=+) | < 1 nM |  |  |  |  |  |  |  |  |  | 701.8 ng/mL | 799.5 ng/mL | 97% | 114% | 104% | 107% |  |  | NMDAR2B A: % maximal [3H]MK-801 binding relative to 1 mM glycine (NMDAR2B): + (<100%=+); AUClast [1]: 1658.09 ng·h/mL; Cl [1]: 20.15 mL/min/kg; Cmax [1]: 1552.63 ng/mL; T1/2 [1]: 9.65 h; Vss [1]: 3.88 L/kg; % F ([2]; per os 10 mg/kg): 79%; AUC(0-last) ([2]; per os, 10 mg/kg, plasma): 6528.55 ng·h/mL; Cmax ([2]; per os, 10 mg/kg, plasma): 3038.07 ng/mL; Tmax ([2]; per os, 10 mg/kg, plasma): 1 h
5 | O=C1NCCCC12CCCCN2 (single isomer, unassigned) [AX, 1,8-diazaspiro[5.5]undecan-7-one] | < 1 nM |  | ≥ 1 nM | 1360 ng·h/mL | 24.4 mL/min/kg | 9.15 h | 1420 ng/mL | 3.31 L/kg | 1 h | 6680 ng·h/mL | 98% | 2560 ng/mL | 342.07 ng/mL | 1547.36 ng/mL | 93% | 120% | 105% | 99% | < 100% | < 100% | 
6 | CC(C)C(=O)N1CCCC12CC=CCNC2=O (single isomer, unassigned) [GH-1, 1-isobutyryl-1,7-diazaspiro[4.6]undec-9-en-6-one] | < 1 nM |  | < 1 nM |  |  |  |  |  |  |  |  |  |  |  | 104% | 100% | 103% and 96% | 102% | < 100% | < 100% | 
